Test results reported in patent publication US8524890B2, “Water-soluble phthalocyanine dye” (National Institute for Materials Science, priority 2009, dated 2013).

Tests used:
Assay type in all cases: physicochemical
[1] = Solubility and aggregation in pure water
[2] = Solubility and aggregation in aqueous Triton-X100 solution (optical absorption spectra, FIG. 8, FIG. 9)
[3] = Solubility and aggregation in mixed water/ethanol solvent (optical absorption spectra, FIG. 7)

aggregation in pure water [1]: strong aggregation
concentration up to which the dye remains disaggregated ([2]; Triton-X100 2% (w/v), absorbance at around 730 nm (FIG. 9)): 20 µM
solubility in the presence of Triton-X100 ([2]; aqueous, Triton-X100 present): grows high
aggregation state ([3]; 10% (v/v) ethanol): substantially aggregated form
water solubility on addition of alcohol ([3]; alcohol added): greatly improved
Substance: [Sb(tbpc)(SO4)(HSO4)].4H2O [Compound 2]
aggregation state above certain concentration of the surfactant ([2]; aqueous Triton-X100, above certain surfactant concentration (FIG. 8)): remains dissolved in a disaggregated form
aggregation state ([3]; 30% (v/v) ethanol): a peak ascribable to disaggregated species is clearly observed
aggregation state ([3]; 50% ethanol): contribution of aggregated species is negligible
